Experimental data reported in paper PMC12368606 (2025).

Assays:
[1] = system: Seq1s (RNA, hairpin) ACCGUGACGGGCCUUUUUGGCUAUACGCGGU; test: CSI-TOF mass spectrometry; conditions: 40 μM NA, 5 μM RNA
[2] = system: Seq1s-4U (RNA, hairpin) ACCGUGACGGGCCUUUUGGCUAUACGCGGU; test: NMR solution structure and titration; conditions: phosphate buffer, 5% D2O for titration
[3] = system: Seq1s (RNA, hairpin) ACCGUGACGGGCCUUUUUGGCUAUACGCGGU; test: UV thermal melting; conditions: 10 μM NA; Tm 66.9 ± 2.0 to 72.1 ± 1.5 °C

binding [1]: yes
binding [2]: yes
ΔTm [3]: 5.2 °C
SMILES: Cc1ccc2ccc(NC(=O)CCNCCC(=O)NCc3ccc4ccc(=O)[nH]c4n3)nc2n1
